PMC6522510 (Nature Communications, 2019)
Counter-ions that a name gives are not always drawn. Like-named read-outs stand apart in the source and are kept apart here. Square brackets hold non-standard residues; d marks the D form. Peptide text beside a SMILES is read from it. * marks the point of attachment. Sta = CC(C)C[C@H](N)[C@@H](O)CC(=O)O; Isovaleryl = CC(C)CC(=O)*

Experiments:
Parameters in all cases: species or system AML cell lines (8); Primary HTS, single concentration about 10 uM, Cell Titer Glo viability; log10 luminescence, per cent inhibition relative to cycloheximide control
Settings in all cases: 72 h, relative to cycloheximide control, log10 luminescence, inhibitor
CMS = tested on: CMS
CMK = tested on: CMK
ML-2 = tested on: ML-2
MOLM-13 = tested on: MOLM-13
M07e = tested on: M07e
MV4-11 = tested on: MV4-11
CHRF288-11 = tested on: CHRF288-11
U937 = tested on: U937

SMILES	CMS %inh (CMS)	CMK %inh (CMK)	ML-2 %inh (ML-2)	MOLM-13 %inh (MOLM-13)	M07e %inh (M07e)	MV4-11 %inh (MV4-11)	CHRF288-11 %inh (CHRF288-11)	U937 %inh (U937)	CMS %inh (CMS; CMS %inh, 10 µM)	CMK %inh (CMK; CMK %inh, 10 µM)	ML-2 %inh (ML-2; ML-2 %inh, 10 µM)	MOLM-13 %inh (MOLM-13; MOLM-13 %inh, 10 µM)	M07e %inh (M07e; M07e %inh, 10 µM)	MV4-11 %inh (MV4-11; MV4-11 %inh, 10 µM)	CHRF288-11 %inh (CHRF288-11; CHRF288-11 %inh, 10 µM)	U937 %inh (U937; U937 %inh, 10 µM)
C[C@@H]1C[C@H]2[C@@H]3C[C@H](F)C4=CC(=O)C=C[C@]4(C)[C@@]3(F)[C@@H](O)C[C@]2(C)[C@@]1(O)C(=O)CO [SJ000287102-3, FLUMETHASONE]	2.822%	4.189%	1.1%	0.6987%	-0.252%	-0.9154%	4.435%	4.356%	–	–	–	–	–	–	–	–
CC1(C)O[C@@H]2C[C@H]3[C@@H]4C[C@H](F)C5=CC(=O)CC[C@]5(C)[C@H]4[C@@H](O)C[C@]3(C)[C@]2(C(=O)CO)O1 [SJ000287138-3, FLURANDRENOLIDE]	0.1237%	-0.8734%	-1.728%	-1.421%	-0.6056%	-1.501%	7.802%	5.849%	–	–	–	–	–	–	–	–
CC(C)(C)c1ccc(C(O)CCCN2CCC(C(O)(c3ccccc3)c3ccccc3)CC2)cc1 (centres unmarked) [SJ000287189-5, TERFENADINE]	-3.743%	-4.344%	1.525%	-1.727%	132.8%	1.084%	1.988%	0.7714%	–	–	–	–	–	–	–	–
NCC1(CC(=O)O)CCCCC1 [SJ000287210-5, GABAPENTIN]	-2.432%	0.3533%	-3.023%	0.8376%	-2.786%	5.813%	-2.43%	-1.755%	–	–	–	–	–	–	–	–
CC(C)CC(=O)N[C@H](C(=O)N[C@H](C(=O)N[C@@H](CC(C)C)[C@@H](O)CC(=O)N[C@@H](C)C(=O)N[C@@H](CC(C)C)[C@@H](O)CC(=O)O)C(C)C)C(C)C [SJ000287258-3, PEPSTATIN A] (Isovaleryl-VV[Sta]A[Sta]-OH)	–	–	–	–	–	–	–	–	1.08%	-4.878%	1.096%	-0.1246%	1.266%	0.8934%	20.49%	4.393%
CC(C)CC(=O)N[C@H](C(=O)N[C@H](C(=O)N[C@@H](CC(C)C)[C@@H](O)CC(=O)N[C@@H](C)C(=O)N[C@@H](CC(C)C)[C@@H](O)CC(=O)O)C(C)C)C(C)C [SJ000287258-4, PEPSTATIN A] (Isovaleryl-VV[Sta]A[Sta]-OH)	–	–	–	–	–	–	–	–	2.288%	-1.598%	-2.254%	0.9923%	-0.4461%	2.97%	-1.709%	-1.362%
C=CC1=C(C(=O)O)N2C(=O)[C@@H](NC(=O)/C(=N\OCC(=O)O)c3csc(N)n3)[C@H]2SC1 [SJ000287284-2, CEFIXIME]	-2.931%	0.8991%	-0.1874%	0.1743%	-4.21%	-3.36%	-7.075%	0.1666%	–	–	–	–	–	–	–	–
CN(CCCCCCCCCCN(C)C(=O)Oc1cccc([N+](C)(C)C)c1)C(=O)Oc1cccc([N+](C)(C)C)c1 [SJ000287334-2, DEMECARIUM BROMIDE]	–	–	–	–	–	–	–	–	0.249%	0.3844%	3.342%	14.75%	6.779%	26.64%	5.292%	24.11%
CN(CCCCCCCCCCN(C)C(=O)Oc1cccc([N+](C)(C)C)c1)C(=O)Oc1cccc([N+](C)(C)C)c1 [SJ000287334-3, DEMECARIUM BROMIDE]	–	–	–	–	–	–	–	–	4.988%	4.147%	2.323%	13.7%	11.04%	33.39%	-4.258%	32.99%
CNCC(O)c1ccc(OC(=O)C(C)(C)C)c(OC(=O)C(C)(C)C)c1 (centres unmarked) [SJ000287343-2, DIPIVEFRIN HYDROCHLORIDE]	-0.6385%	-4.432%	3.768%	33.32%	1.591%	8.373%	9.226%	7.06%	–	–	–	–	–	–	–	–
COCCCC/C(=N\OCCN)c1ccc(C(F)(F)F)cc1 [SJ000287487-5, FLUVOXAMINE MALEATE]	-2.805%	-1.719%	4.445%	5.945%	1.409%	0.9693%	7.313%	7.709%	–	–	–	–	–	–	–	–
COC(=O)C1=C(C)NC(C)=C(C(=O)OC(C)C)C1c1cccc2nonc12 (centres unmarked) [SJ000287510-2, ISRADIPINE]	-2.562%	-2.127%	-1.199%	6.188%	0.2973%	2.426%	8.592%	3.366%	–	–	–	–	–	–	–	–
Cc1cccc(C)c1NC(=O)C(C)N (centres unmarked) [SJ000287515-4, TOCAINIDE HYDROCHLORIDE]	-0.9728%	-3.02%	2.731%	2.63%	1.522%	-0.903%	-1.466%	-0.5289%	–	–	–	–	–	–	–	–
CCOc1cc(CC(=O)N[C@@H](CC(C)C)c2ccccc2N2CCCCC2)ccc1C(=O)O [SJ000287528-2, REPAGLINIDE]	–	–	–	–	–	–	–	–	0.05176%	-2.471%	3.177%	-0.4831%	3.133%	0.6192%	3.798%	-2.093%
CCOc1cc(CC(=O)N[C@@H](CC(C)C)c2ccccc2N2CCCCC2)ccc1C(=O)O [SJ000287528-3, REPAGLINIDE]	–	–	–	–	–	–	–	–	-3.811%	-1.863%	-0.6814%	1.863%	1.002%	-2.004%	0.4521%	0.8964%
CCN[C@H]1C[C@H](C)S(=O)(=O)c2sc(S(N)(=O)=O)cc21 [SJ000287570-2, DORZOLAMIDE HYDROCHLORIDE]	-2.24%	0.1634%	-0.8167%	5.665%	-0.4811%	-1.46%	-4.447%	2.321%	–	–	–	–	–	–	–	–
NS(=O)(=O)c1cc2c(cc1Cl)NC(C1CC3C=CC1C3)NS2(=O)=O (centres unmarked) [SJ000287770-4, CYCLOTHIAZIDE]	2.052%	4.526%	0.8137%	4.774%	-1.741%	2.178%	-0.8826%	3.095%	–	–	–	–	–	–	–	–
CCOC(=O)c1ncn2c1CN(C)C(=O)c1cc(F)ccc1-2 [SJ000287880-4, FLUMAZENIL]	5.754%	-1.15%	-1.521%	-0.5944%	1.865%	0.7722%	1.517%	0.9807%	–	–	–	–	–	–	–	–
O=C1Nc2ccc(I)cc2C1=Cc1cc(Br)c(O)c(Br)c1 [SJ000287883-4, GW 5074 | GW5074 | RAF1 KINASE INHIBITOR I | U7401/61/2 | GW5074]	1.257%	3.747%	-0.3991%	3.135%	1.287%	1.335%	7.111%	2.224%	–	–	–	–	–	–	–	–
